We go through nine molecules from ChEMBL document CHEMBL6087415, “Discovery of new fungal jumonji H3K27 demethylase inhibitors for the treatment of Cryptococcus neoformans and Candida auris infections” (Eur J Med Chem, 2025).

≈ marks a conversion by molar mass, not a printed value. Calls of active or inactive are those of the source. Bounds are passed on as bounds.

Series [1] concerns Cryptococcus neoformans. In words: Antifungal activity against Cryptococcus neoformans H99 assessed as reduction in fungal growth. The format is functional.
The subject of series [2] is [Candida] auris. Put plainly: Antifungal activity against Candida auris 0029 assessed as reduction in fungal growth. The format is functional. The conditions noted are these: Candidozyma auris.
Series [3] has as its system [Candida] auris. In words: Antifungal activity against Candida auris ATCC 15448 assessed as reduction in fungal growth. The format is functional. The conditions noted are these: Candidozyma auris.
Another series deals with Candida albicans. Put plainly: Synergistic antifungal activity against Candida albicans assessed as inhibition of fungal growth incubated in presence of fluconazole. The class given is functional, organism-based.
Series [4] has as its system [Candida] auris. Put plainly: Synergistic antifungal activity against Candida auris 0029 assessed as inhibition of fungal growth incubated in presence of fluconazole. The class given is functional, organism-based. The conditions noted are these: Candidozyma auris.
Series [5] can be described thus: Solubility of compound in MeOH/H2O at pH 7 by HPLC analysis. The class given is physicochemical.
Series [6] in a line: Cytotoxicity against HUVEC cells. The format is toxicity, cell-based. The conditions noted are these: human.
Series [7] can be described thus: Hemolytic activity in rabbit erythrocytes assessed as hemolysis at 10 to 100 uM relative to control. The class given is toxicity, cell-based, Oryctolagus cuniculus, Erythrocyte. The conditions noted are these: dose 10-100 µM, read-out: Activity.
In series [8] the test system is Cryptococcus neoformans. In words: Antifungal activity against Cryptococcus neoformans H99 assessed as inhibition of cell growth at 4 microg/ml measured for 72 hrs. The class given is functional, organism-based. The conditions noted are these: dose 4.0 µg/ml.
For series [9], the system named is [Candida] auris. Put plainly: Antifungal activity against Candida auris 0029 assessed as inhibition of cell growth at 16 microg/ml measured for 72 hrs. The class given is functional. The conditions noted are these: Candidozyma auris.
Series [10] concerns Cryptococcus neoformans. Put plainly: Fungicidal activity against Cryptococcus neoformans H99. The format is functional.
Series [11] relates to [Candida] auris. In words: Fungicidal activity against Candida auris 0029. The class given is functional. The conditions noted are these: Candidozyma auris.
Series [12] has as its system Cryptococcus neoformans. In words: Antibiofilm activity against Cryptococcus neoformans H99 assessed as inhibition of biofilm formation upto […] microg/ml incubated for 24 hrs by XTT reduction assay. The format is functional, organism-based. The conditions noted are these: dose <= 64.0 µg/ml.
Series [13] deals with [Candida] auris. Put plainly: Antibiofilm activity against Candida auris 0029 assessed as inhibition of biofilm formation upto […] microg/ml incubated for 24 hrs by XTT reduction assay. The format is functional, organism-based. The conditions noted are these: Candidozyma auris, dose <= 64.0 µg/ml. (Tetrazolium dyes change colour on reduction, which living cells bring about.)

Series [14] concerns Cryptococcus neoformans. Put plainly: Antibiofilm activity against Cryptococcus neoformans H99 assessed as inhibition of biofilm formation at 1 microg/ml incubated for 24 hrs by XTT reduction assay. The class given is functional, organism-based. The conditions noted are these: dose 1.0 µg/ml.
The test system of series [15] is [Candida] auris. In words: Antibiofilm activity against Candida auris 0029 assessed as inhibition of biofilm formation at 4 to 64 microg/ml incubated for 24 hrs by XTT reduction assay. The format is functional, organism-based. The conditions noted are these: Candidozyma auris, dose 4-64 µg/ml.
Series [16] concerns Cryptococcus neoformans. Put plainly: Antibiofilm activity against Cryptococcus neoformans H99 assessed as inhibition of capsule formation at 1 microg/ml incubated for 48 hrs by laser confocal microscopic analysis. The format is functional, organism-based. The conditions noted are these: dose 1.0 µg/ml.
Series [17] has as its system [Candida] auris. Put plainly: Antibiofilm activity against Candida auris 0029 assessed as appearance of surface collapse at 4 to 16 microg/ml measured for 48 hrs by SEM analysis. The conditions noted are these: Candidozyma auris, dose 4-16 µg/ml. The format is functional, organism-based.
For series [18], the system named is Cryptococcus neoformans. Put plainly: Antibiofilm activity against Cryptococcus neoformans H99 assessed as appearance of surface collapse at 4 to 16 microg/ml measured for 48 hrs by SEM analysis. The class given is functional, organism-based. The conditions noted are these: dose 4-16 µg/ml.
The subject of series [19] is Cryptococcus neoformans. Put plainly: Antibiofilm activity against Cryptococcus neoformans H99 assessed as appearance of blurred capsule at 4 microg/ml measured for 48 hrs by SEM analysis. The class given is functional, organism-based. The conditions noted are these: dose 4.0 µg/ml.
In series [20] the test system is Cryptococcus neoformans. In words: Induction of morphological changes in Cryptococcus neoformans H99 assessed as damaged cell membrane at 1 to 4 microg/ml by TEM analysis. The format is functional, organism-based. The conditions noted are these: dose 1-4 µg/ml.
The test system of series [21] is Cryptococcus neoformans. In words: Induction of morphological changes in Cryptococcus neoformans H99 assessed as sparse capsule at 1 to 4 microg/ml by TEM analysis. The format is functional, organism-based. The conditions noted are these: dose 1-4 µg/ml.
The subject of series [22] is [Candida] auris. In words: Induction of morphological changes in Candida auris 0029 assessed as cell wall damage by TEM analysis. The class given is functional, organism-based. The conditions noted are these: Candidozyma auris.
Series [23] deals with [Candida] auris. In words: Induction of morphological changes in Candida auris 0029 assessed as cell membrane damage by TEM analysis. The class given is functional, organism-based. The conditions noted are these: Candidozyma auris.
Series [24] is described as follows: Inhibition of Cryptococcus neoformans H99 JMJD3 by absorbance based analysis.
Series [25] can be described thus: Inhibition of Candida auris 0029 JMJD3 by absorbance based analysis. More on the design: species or system Candidozyma auris.
Series [26] has as its system Cryptococcus neoformans. Put plainly: Antifungal activity against Cryptococcus neoformans H99 infected in ICR mouse assessed as reduction in fungal burden in brain at 2 to 5 mg/kg, ip administered for 5 days. The class given is functional, organism-based. The conditions noted are these: dose 2-5 mg/kg, time 5.0 day.
Series [27] in a line: Metabolic stability in mouse liver microsome assessed as half life. The class given is ADME. The conditions noted are these: liver microsomes. (Liver microsomes are a subcellular fraction often used to study metabolism.)
The nature of series [28]: Metabolic stability in mouse liver microsome assessed as clearance. The format is ADME. The conditions noted are these: liver microsomes, read-out: CLH.
Series [29] deals with Cryptococcus neoformans. Put plainly: Antifungal activity against Cryptococcus neoformans H99 assessed as reduction in fungal growth incubated for 72 hrs in presence of 1 uM Fe2+. The format is functional.
Series [30] has as its system Cryptococcus neoformans. Put plainly: Antifungal activity against Cryptococcus neoformans H99 assessed as reduction in fungal growth incubated for 72 hrs in presence of 5 uM Fe2+. The format is functional.
In series [31] the test system is Cryptococcus neoformans. Put plainly: Antifungal activity against Cryptococcus neoformans H99 assessed as reduction in fungal growth incubated for 72 hrs in presence of 10 uM Fe2+. The format is functional.
In series [32] the test system is Cryptococcus neoformans. In words: Antifungal activity against Cryptococcus neoformans H99 assessed as reduction in fungal growth incubated for 72 hrs in presence of 20 uM Fe2+. The class given is functional.
Series [33] relates to Cryptococcus neoformans. Put plainly: Antifungal activity against Cryptococcus neoformans H99 assessed as reduction in fungal growth incubated for 72 hrs in presence of 40 uM Fe2+. The format is functional.
The test system of series [34] is Cryptococcus neoformans. In words: Antifungal activity against Cryptococcus neoformans H99 assessed as reduction in fungal growth incubated for 72 hrs in presence of 80 uM Fe2+. The format is functional.
For series [35], the system named is [Candida] auris. Put plainly: Effect on sterol composition in Candida auris 0029 assessed as other sterols content at 1 microg/ml measured after 24 hrs by GC-MS analysis. The format is functional, Candidozyma auris. The conditions noted are these: dose 1 µg/ml.
For series [36], the system named is [Candida] auris. Put plainly: Effect on sterol composition in Candida auris 0029 assessed as ergosterol content at 1 microg/ml measured after 24 hrs by GC-MS analysis (reference value: 100 %). The format is functional, Candidozyma auris. The conditions noted are these: dose 1 µg/ml.
Series [37] concerns Cryptococcus neoformans. In words: Effect on sterol composition in Cryptococcus neoformans H99 assessed as ergosterol content at 1 microg/ml measured after 24 hrs by GC-MS analysis (reference value: 58.53%). The class given is functional. The conditions noted are these: dose 1 µg/ml.
Series [38] deals with Cryptococcus neoformans. In words: Effect on sterol composition in Cryptococcus neoformans H99 assessed as other sterols content at 1 microg/ml measured after 24 hrs by GC-MS analysis (reference value: 41.47%). The format is functional. The conditions noted are these: dose 1 µg/ml.
Series [39] concerns [Candida] auris. In words: Antifungal activity against Candida auris 0029 infected in ICR mouse assessed as reduction in fungal burden in kidney at 2 to 5 mg/kg, ip administered for 5 days. The format is functional, organism-based. The conditions noted are these: Candidozyma auris, dose 2-5 mg/kg, time 5.0 day.

The term MIC80 denotes the lowest concentration that inhibits either 80% of growth or 80% of the strains tested, depending on the study. On to `Clc1ccc(N/N=C(\c2ccc(Cl)cc2)c2ccccn2)cc1`, for which the MIC80 with Cryptococcus neoformans [1] is 32 µg/mL (≈ 93.5 µM); in [Candida] auris [2] it was > 64 µg/mL; in [Candida] auris [3], > 64 µg/mL.
On to `Fc1ccc(N/N=C(\c2ccccc2)c2ccccn2)cc1`, for which the MIC80 stood at 32 µg/mL (≈ 110 µM) in the series on Cryptococcus neoformans [1], 32 µg/mL (≈ 110 µM) in [Candida] auris [2] and 8 µg/mL (≈ 27.5 µM) in series [Candida] auris [3].
On to `Cc1ccc(NC(=O)C(c2ccccc2)c2ccccn2)nc1` (stereo not given), for which the MIC80 with Cryptococcus neoformans [1] is 32 µg/mL (≈ 105 µM); in series [Candida] auris [2], > 64 µg/mL; in [Candida] auris [3], 64 µg/mL (≈ 211 µM).
On the same counts, the results for `Clc1ccc(/C(=N\Nc2ccc(Cl)cn2)c2ccccn2)cc1` are 0.5 µg/mL (≈ 1.46 µM), 2 µg/mL (≈ 5.83 µM) and 1 µg/mL (≈ 2.91 µM).
As usually defined, the solubility is the dissolved amount per volume that the medium holds. Lower therefore signals little dissolved substance. Broadly, the IC50 is the concentration that gives 50% inhibition. A high value points to weaker potency. In general, inhibition refers to the change of the read-out against control, counted positive when it falls. One may read the MFC as the smallest concentration meeting the test's criterion for killing the fungus. A lower MFC goes with greater fungicidal potency. As usually defined, the half-life is how long it takes for the measured level to halve. The MIC is the lowest concentration found to suppress growth. On to `COc1ccc(NN=C(c2ccccn2)c2ccccn2)nc1`, for which the result (with Candida albicans; in [Candida] auris [4]) was inactive. In series [5], the solubility was determined as 79.2 µg/mL (≈ 259 µM). The MIC80 in the series on Cryptococcus neoformans [1] came to 0.5 µg/mL (≈ 1.64 µM); in series [Candida] auris [2], 2 µg/mL (≈ 6.55 µM); in series [Candida] auris [3] it was 0.125 µg/mL (≈ 0.409 µM). The IC50 in [6] turned out to be 246 nM; in series [24], 134 nM; in series [25], 12 nM. In addition, the hemolysis at 100 µM in series [7] was < 3%. Also, the outcome (in the series with Cryptococcus neoformans [8]; in the series on Cryptococcus neoformans [12]; in [Candida] auris [13]; in the series on Cryptococcus neoformans [14]; in [Candida] auris [15]; with Cryptococcus neoformans [16]) was Active. The result (in [Candida] auris [17]; with Cryptococcus neoformans [18]; in the series on Cryptococcus neoformans [19]; in the series with Cryptococcus neoformans [20]; in the series on Cryptococcus neoformans [21]; in series [Candida] auris [22]) was Active. Besides, the result (in series [Candida] auris [23]; in the series on Cryptococcus neoformans [26]; in series [Candida] auris [39]) was Active. Also, the inhibition at 16 µg/mL in series [Candida] auris [9] stood at 100%. Further, the values for the MFC (with Cryptococcus neoformans [10]; in series [Candida] auris [11]) were 8 µg/mL (≈ 26.2 µM) and 64 µg/mL (≈ 210 µM), respectively. Further, the half-life in [27] was found to be 50.6 min. The CLint scaled in series [28] is 108 mL/min/kg. In addition, the MIC in the series with Cryptococcus neoformans [29] stood at 2 µg/mL; in the series with Cryptococcus neoformans [30], 4 µg/mL; with Cryptococcus neoformans [31], 8 µg/mL; with Cryptococcus neoformans [32], 16 µg/mL; in the series with Cryptococcus neoformans [33], 16 µg/mL; with Cryptococcus neoformans [34] it was 32 µg/mL. The Activity is listed as 43.07% in series [Candida] auris [35], 56.93% in series [Candida] auris [36], 43.82% in the series with Cryptococcus neoformans [37] and 41.52% in the series with Cryptococcus neoformans [38].
For the molecule `O=c1n(-c2ccccn2)c2ccccc2n1-c1ccc(Cl)cn1`, the MIC80 in the series on Cryptococcus neoformans [1] is 64 µg/mL (≈ 198 µM); in series [Candida] auris [2], > 64 µg/mL; in series [Candida] auris [3] it was > 64 µg/mL.
As for `FC(F)(F)c1ccc(N/N=C(/c2ccccc2)c2ccccn2)cc1`, the MIC80 (in the series with Cryptococcus neoformans [1]; in series [Candida] auris [2]; in [Candida] auris [3]) was > 64 µg/mL in each case.
With `N#Cc1ccc(NN=C(c2ccccn2)c2ccccn2)nc1`, in series [5], the solubility was 3.93 µg/mL (≈ 13.1 µM). Moreover, the MIC80 with Cryptococcus neoformans [1] was 0.5 µg/mL (≈ 1.66 µM); in [Candida] auris [2], 2 µg/mL (≈ 6.66 µM); in [Candida] auris [3], 0.125 µg/mL (≈ 0.416 µM).
Consider `Clc1cccnc1N/N=C(\c1ccccc1)c1ccccn1`, for which the MIC80 with Cryptococcus neoformans [1] was 1 µg/mL (≈ 3.24 µM); in series [Candida] auris [2], 4 µg/mL (≈ 13 µM); in series [Candida] auris [3] it was 0.5 µg/mL (≈ 1.62 µM).
